In ChEMBL document CHEMBL3991601, “The target landscape of clinical kinase drugs” (Science, 2017):
Activity calls are given as the source filed them. Rule as the data show it, for most assays here: actives have a measured Kd and inactives only a lower limit.

Tests used:
Focal adhesion kinase 1 = Focal adhesion kinase 1 (Homo sapiens, UniProt Q05397)
Ephrin type-B receptor 3 = target: T1, Ephrin type-B receptor 3 (Homo sapiens, UniProt P54753)
T1 sequence (P54753 whole entry): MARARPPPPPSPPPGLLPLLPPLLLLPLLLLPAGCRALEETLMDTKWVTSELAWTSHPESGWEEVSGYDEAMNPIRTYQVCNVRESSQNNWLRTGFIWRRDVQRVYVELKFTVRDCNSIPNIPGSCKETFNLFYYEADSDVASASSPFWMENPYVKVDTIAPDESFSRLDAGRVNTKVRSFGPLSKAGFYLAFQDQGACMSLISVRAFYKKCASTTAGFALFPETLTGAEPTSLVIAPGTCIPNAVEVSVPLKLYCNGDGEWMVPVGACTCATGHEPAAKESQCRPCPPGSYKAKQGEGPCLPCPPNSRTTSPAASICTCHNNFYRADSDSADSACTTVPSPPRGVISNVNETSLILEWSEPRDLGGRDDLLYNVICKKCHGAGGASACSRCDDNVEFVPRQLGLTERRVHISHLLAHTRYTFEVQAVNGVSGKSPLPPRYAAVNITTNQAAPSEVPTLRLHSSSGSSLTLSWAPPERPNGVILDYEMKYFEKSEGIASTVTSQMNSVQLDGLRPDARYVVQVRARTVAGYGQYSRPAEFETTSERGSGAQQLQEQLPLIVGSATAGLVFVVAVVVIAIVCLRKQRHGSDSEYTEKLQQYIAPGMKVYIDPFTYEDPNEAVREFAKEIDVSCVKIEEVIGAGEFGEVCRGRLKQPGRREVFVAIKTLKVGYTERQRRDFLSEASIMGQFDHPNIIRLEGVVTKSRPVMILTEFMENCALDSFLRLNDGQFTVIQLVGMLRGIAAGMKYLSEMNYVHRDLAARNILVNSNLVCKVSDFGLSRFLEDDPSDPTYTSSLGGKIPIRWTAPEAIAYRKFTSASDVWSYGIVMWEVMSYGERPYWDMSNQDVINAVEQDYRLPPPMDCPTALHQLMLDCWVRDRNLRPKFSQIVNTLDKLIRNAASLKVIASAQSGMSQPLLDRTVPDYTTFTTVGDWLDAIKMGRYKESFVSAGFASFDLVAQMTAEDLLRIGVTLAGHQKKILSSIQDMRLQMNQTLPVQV

[1] = target: T2, Serine/threonine-protein kinase ICK (Homo sapiens, UniProt Q9UPZ9)
T2 sequence (Q9UPZ9 whole entry): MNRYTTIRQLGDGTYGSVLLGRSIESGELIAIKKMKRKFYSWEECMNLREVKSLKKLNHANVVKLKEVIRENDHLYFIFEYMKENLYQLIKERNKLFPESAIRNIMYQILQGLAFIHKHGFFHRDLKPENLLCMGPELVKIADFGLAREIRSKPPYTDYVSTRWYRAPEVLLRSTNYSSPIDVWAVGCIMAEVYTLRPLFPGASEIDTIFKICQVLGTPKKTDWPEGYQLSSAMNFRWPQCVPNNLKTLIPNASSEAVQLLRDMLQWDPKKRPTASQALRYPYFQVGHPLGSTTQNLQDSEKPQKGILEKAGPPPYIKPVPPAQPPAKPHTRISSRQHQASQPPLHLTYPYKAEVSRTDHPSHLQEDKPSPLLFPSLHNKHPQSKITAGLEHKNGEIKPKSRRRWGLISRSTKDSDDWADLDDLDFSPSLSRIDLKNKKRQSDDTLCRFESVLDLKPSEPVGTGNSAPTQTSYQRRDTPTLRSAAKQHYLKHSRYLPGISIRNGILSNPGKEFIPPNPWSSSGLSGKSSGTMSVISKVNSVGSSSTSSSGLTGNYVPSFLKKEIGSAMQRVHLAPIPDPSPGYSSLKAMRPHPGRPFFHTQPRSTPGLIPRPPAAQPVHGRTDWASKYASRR

[2] = target: T3, Very long-chain specific acyl-CoA dehydrogenase, mitochondrial (Homo sapiens, UniProt P49748)
T3 sequence (P49748 whole entry): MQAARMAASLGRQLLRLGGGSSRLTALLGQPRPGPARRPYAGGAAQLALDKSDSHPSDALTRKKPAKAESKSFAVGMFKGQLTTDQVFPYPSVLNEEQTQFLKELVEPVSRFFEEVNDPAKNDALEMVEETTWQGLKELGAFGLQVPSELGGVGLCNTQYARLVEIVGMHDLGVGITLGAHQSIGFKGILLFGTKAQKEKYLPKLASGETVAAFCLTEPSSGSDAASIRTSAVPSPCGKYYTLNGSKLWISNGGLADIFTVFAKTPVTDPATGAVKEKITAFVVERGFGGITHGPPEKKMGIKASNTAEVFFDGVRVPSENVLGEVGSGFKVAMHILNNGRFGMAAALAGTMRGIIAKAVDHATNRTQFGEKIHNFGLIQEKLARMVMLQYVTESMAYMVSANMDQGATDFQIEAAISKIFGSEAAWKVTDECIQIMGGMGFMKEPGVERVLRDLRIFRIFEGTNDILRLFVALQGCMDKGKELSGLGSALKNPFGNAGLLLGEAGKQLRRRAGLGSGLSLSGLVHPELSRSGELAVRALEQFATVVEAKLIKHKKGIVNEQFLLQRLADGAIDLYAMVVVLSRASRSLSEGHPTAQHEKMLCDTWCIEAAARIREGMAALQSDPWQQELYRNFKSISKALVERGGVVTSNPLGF

[3] = target: Protein-tyrosine kinase 6 (Homo sapiens, UniProt Q13882)
Chain of Protein-tyrosine kinase 6 (Q13882 whole entry): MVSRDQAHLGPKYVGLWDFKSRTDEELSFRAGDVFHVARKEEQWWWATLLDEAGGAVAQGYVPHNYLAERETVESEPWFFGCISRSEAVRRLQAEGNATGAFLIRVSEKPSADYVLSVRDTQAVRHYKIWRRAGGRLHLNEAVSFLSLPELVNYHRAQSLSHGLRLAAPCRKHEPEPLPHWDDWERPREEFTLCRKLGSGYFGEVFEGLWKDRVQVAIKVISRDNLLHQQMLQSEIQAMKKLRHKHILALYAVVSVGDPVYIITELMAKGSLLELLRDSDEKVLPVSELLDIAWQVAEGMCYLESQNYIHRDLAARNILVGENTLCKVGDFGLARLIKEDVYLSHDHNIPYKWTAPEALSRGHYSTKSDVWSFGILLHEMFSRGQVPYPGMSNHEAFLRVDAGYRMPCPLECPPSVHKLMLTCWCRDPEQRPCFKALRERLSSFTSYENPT

[4] = target: Protein kinase C alpha type (Homo sapiens, UniProt P17252)
[5] = target: T4, Delta(24)-sterol reductase (Homo sapiens, UniProt Q15392)
T4 sequence (Q15392 whole entry): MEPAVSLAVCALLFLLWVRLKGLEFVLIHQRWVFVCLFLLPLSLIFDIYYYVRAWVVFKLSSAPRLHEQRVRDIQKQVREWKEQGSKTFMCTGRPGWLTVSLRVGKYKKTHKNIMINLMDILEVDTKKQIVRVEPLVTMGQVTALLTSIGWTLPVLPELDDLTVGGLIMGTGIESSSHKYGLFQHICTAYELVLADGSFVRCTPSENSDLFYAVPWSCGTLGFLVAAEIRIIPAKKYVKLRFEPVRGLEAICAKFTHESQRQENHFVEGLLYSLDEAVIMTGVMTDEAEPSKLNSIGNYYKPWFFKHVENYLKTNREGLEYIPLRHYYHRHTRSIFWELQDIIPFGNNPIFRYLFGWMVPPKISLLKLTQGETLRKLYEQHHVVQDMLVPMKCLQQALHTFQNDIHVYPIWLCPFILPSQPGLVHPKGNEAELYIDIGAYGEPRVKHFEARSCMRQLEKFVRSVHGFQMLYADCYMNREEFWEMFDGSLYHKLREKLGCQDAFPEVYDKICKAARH

[6] = target: Mitogen-activated protein kinase kinase kinase kinase 5 (Homo sapiens, UniProt Q9Y4K4)
Chain of Mitogen-activated protein kinase kinase kinase kinase 5 (Q9Y4K4 whole entry): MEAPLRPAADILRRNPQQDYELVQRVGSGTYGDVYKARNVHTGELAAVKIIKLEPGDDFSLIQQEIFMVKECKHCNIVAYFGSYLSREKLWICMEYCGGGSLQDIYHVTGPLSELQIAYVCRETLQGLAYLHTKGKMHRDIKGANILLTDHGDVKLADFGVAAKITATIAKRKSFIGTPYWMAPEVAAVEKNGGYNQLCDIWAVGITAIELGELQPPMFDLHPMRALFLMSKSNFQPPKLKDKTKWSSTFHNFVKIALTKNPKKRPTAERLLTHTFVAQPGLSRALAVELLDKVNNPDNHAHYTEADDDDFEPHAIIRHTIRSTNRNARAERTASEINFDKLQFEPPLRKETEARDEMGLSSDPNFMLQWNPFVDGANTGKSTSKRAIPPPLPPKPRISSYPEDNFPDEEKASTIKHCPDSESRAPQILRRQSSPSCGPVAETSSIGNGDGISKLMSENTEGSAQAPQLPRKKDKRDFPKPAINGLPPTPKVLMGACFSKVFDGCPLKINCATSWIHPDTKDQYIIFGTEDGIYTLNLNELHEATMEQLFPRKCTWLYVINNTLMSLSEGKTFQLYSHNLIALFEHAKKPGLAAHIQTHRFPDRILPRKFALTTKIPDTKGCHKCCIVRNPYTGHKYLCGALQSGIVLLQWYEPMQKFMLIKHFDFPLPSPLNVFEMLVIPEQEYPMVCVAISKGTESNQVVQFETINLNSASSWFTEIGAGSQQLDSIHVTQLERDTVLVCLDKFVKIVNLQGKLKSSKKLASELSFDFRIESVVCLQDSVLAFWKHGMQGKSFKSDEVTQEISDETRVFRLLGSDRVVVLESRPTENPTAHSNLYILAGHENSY
Also: in the data inactive means no Kd found up to 30 µM.

Chain of Focal adhesion kinase 1 (Q05397 whole entry): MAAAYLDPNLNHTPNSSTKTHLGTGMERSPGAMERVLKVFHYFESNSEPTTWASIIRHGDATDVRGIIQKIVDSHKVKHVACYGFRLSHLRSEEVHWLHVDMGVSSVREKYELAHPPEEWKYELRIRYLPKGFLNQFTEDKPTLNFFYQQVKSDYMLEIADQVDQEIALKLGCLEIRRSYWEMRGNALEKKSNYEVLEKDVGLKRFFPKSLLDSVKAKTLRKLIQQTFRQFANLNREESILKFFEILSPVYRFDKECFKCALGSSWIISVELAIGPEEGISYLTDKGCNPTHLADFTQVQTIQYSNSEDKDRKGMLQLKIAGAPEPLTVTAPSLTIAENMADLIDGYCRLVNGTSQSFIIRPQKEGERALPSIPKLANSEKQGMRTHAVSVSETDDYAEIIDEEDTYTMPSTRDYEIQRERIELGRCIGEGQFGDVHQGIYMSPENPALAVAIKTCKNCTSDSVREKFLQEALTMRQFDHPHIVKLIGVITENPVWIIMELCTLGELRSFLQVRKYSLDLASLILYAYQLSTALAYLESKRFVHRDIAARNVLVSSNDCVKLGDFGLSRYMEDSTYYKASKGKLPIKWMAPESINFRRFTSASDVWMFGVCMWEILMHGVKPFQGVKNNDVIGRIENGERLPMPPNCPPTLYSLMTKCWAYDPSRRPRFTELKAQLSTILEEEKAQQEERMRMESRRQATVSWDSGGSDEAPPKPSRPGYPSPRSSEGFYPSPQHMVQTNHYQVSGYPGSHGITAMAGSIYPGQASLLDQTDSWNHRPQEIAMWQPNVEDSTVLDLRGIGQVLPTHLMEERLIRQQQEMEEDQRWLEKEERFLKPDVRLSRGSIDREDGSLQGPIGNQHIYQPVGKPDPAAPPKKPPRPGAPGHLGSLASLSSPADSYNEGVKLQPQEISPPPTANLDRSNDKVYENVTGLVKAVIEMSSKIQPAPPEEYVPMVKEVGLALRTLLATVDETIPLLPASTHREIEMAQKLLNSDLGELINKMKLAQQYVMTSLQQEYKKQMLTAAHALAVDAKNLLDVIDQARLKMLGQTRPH

Compound | Kd (Focal adhesion kinase 1) | Kd (Ephrin type-B receptor 3) | Kd [1] | Kd [2] | Kd [3] | Kd [4] | Kd [5] | Kd [6]
O=C(c1ccc(F)c(F)c1Nc1ccc(I)cc1F)N1CC(O)([C@@H]2CCCCN2)C1 [COBIMETINIB] | > 30 µM (inactive) | > 30 µM (inactive) | > 30 µM (inactive) | > 30 µM (inactive) | > 30 µM (inactive) | > 30 µM (inactive) | > 30 µM (inactive) | > 30 µM (inactive)
COc1cc(N2CCC(N3CCN(C)CC3)CC2)ccc1Nc1ncnc(Nc2ccccc2S(=O)(=O)C(C)C)n1 [ASP-3026] | 0.074 µM (active) | 5.5 µM (active) | > 30 µM (inactive) | > 30 µM (inactive) | 0.061 µM (active) | > 30 µM (inactive) | > 30 µM (inactive) | > 30 µM (inactive)
O=c1sn(-c2cccc3ccccc23)c(=O)n1Cc1ccccc1 [TIDEGLUSIB] | > 30 µM (inactive) | > 30 µM (inactive) | > 30 µM (inactive) | > 30 µM (inactive) | > 30 µM (inactive) | > 30 µM (inactive) | > 30 µM (inactive) | > 30 µM (inactive)
CNS(=O)(=O)Nc1nccc(Cc2c(C)c3ccc(Oc4ncccn4)cc3oc2=O)c1F [AVUTOMETINIB] | > 30 µM (inactive) | > 30 µM (inactive) | > 30 µM (inactive) | > 30 µM (inactive) | > 30 µM (inactive) | > 30 µM (inactive) | > 30 µM (inactive) | > 30 µM (inactive)
C[C@@H](Nc1cc(F)cc(F)c1)c1cc(C(=O)N(C)C)cc2c(=O)cc(N3CCOCC3)oc12 [AZD-8186] | > 30 µM (inactive) | > 30 µM (inactive) | > 30 µM (inactive) | > 30 µM (inactive) | > 30 µM (inactive) | > 30 µM (inactive) | > 30 µM (inactive) | > 30 µM (inactive)
Cc1ccc(S(=O)(=O)Nc2nc3ccccc3nc2Nc2ccc3nsnc3c2)cc1 | > 30 µM (inactive) | > 30 µM (inactive) | > 30 µM (inactive) | > 30 µM (inactive) | > 30 µM (inactive) | > 30 µM (inactive) | > 30 µM (inactive) | > 30 µM (inactive)
CN1CCC(CNc2ccc3ncc(-c4cccc(OC(F)(F)F)c4)n3n2)CC1 [SGI-1776] | > 30 µM (inactive) | > 30 µM (inactive) | > 30 µM (inactive) | > 30 µM (inactive) | > 30 µM (inactive) | > 30 µM (inactive) | > 30 µM (inactive) | > 30 µM (inactive)
CCCS(=O)(=O)Nc1ccc(F)c(C(=O)c2c[nH]c3ncc(-c4ccc(Cl)cc4)cc23)c1F [VEMURAFENIB] | > 30 µM (inactive) | > 30 µM (inactive) | > 30 µM (inactive) | > 30 µM (inactive) | 1.41 µM (active) | > 30 µM (inactive) | > 30 µM (inactive) | 1.8 µM (active)
C=CC(=O)N1CCC(Oc2cc3c(Nc4ccc(Cl)c(Cl)c4F)ncnc3cc2OC)CC1 [POZIOTINIB] | > 30 µM (inactive) | > 30 µM (inactive) | > 30 µM (inactive) | > 30 µM (inactive) | > 30 µM (inactive) | > 30 µM (inactive) | > 30 µM (inactive) | > 30 µM (inactive)
